Source: PubChem BioAssay AID330 (DTP/NCI, 2004)
Where “and” joins values, the source holds several entries; their conditions need not be identical. Equal entries are not always repeated. Toxic doses and inconclusive results are not listed. How the source made its calls: active means survival T/C of 150% or more; inactive means T/C below 125% in these data.

Tested on: P388 leukemia ip, CD2F1 mice, survival T/C
Assay: NCI In Vivo Anticancer Drug Screen. Data for tumor model P388 Leukemia (intraperitoneal) in CD2F1 (CDF1) mice
Conditions: endpoint: median survival time, higher = longer survival
Method in brief: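 Mice carrying the transplanted tumor received test compound or vehicle. Survival was recorded in each group, and the value is the treated-group measurement divided by that of the vehicle-treated control group.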

[1] = dose: 12.5 mg/kg/injection, schedule: Q01DX009 (ip), vehicle: Klucel (hydroxypropylcellulose) (HPC)
[2] = dose: 25.0 mg/kg/injection, schedule: Q01DX009 (ip), vehicle: Klucel (hydroxypropylcellulose) (HPC)
[3] = dose: 50.0 mg/kg/injection, schedule: Q01DX005 (ip), vehicle: saline with Tween-80
[4] = dose: 100.0 mg/kg/injection, schedule: Q01DX005 (ip), vehicle: saline with Tween-80
[5] = dose: 200.0 mg/kg/injection, schedule: Q01DX005 (ip), vehicle: saline with Tween-80
[6] = dose: 50.0 mg/kg/injection, schedule: Q01DX009 (ip), vehicle: saline
[7] = dose: 100.0 mg/kg/injection, schedule: Q01DX009 (ip), vehicle: saline
[8] = dose: 200.0 mg/kg/injection, schedule: Q01DX009 (ip), vehicle: saline
[9] = dose: 60.0 mg/kg/injection, schedule: Q01DX005 (ip), vehicle: saline
[10] = dose: 120.0 mg/kg/injection, schedule: Q01DX005 (ip), vehicle: saline
[11] = dose: 240.0 mg/kg/injection, schedule: Q01DX005 (ip), vehicle: saline
[12] = dose: 50.0 mg/kg/injection, schedule: Q01DX005 (ip), vehicle: Klucel (hydroxypropylcellulose) (HPC)
[13] = dose: 100.0 mg/kg/injection, schedule: Q01DX005 (ip), vehicle: Klucel (hydroxypropylcellulose) (HPC)
[14] = dose: 200.0 mg/kg/injection, schedule: Q01DX005 (ip), vehicle: Klucel (hydroxypropylcellulose) (HPC)
[15] = dose: 50.0 mg/kg/injection, schedule: Q01DX009 (ip), vehicle: Klucel (hydroxypropylcellulose) (HPC)
[16] = dose: 6.25 mg/kg/injection, schedule: Q01DX009 (ip), vehicle: saline with Tween-80
[17] = dose: 12.5 mg/kg/injection, schedule: Q01DX009 (ip), vehicle: saline with Tween-80
[18] = dose: 50.0 mg/kg/injection, schedule: Q01DX009 (ip), vehicle: saline with Tween-80
[19] = dose: 100.0 mg/kg/injection, schedule: Q01DX009 (ip), vehicle: saline with Tween-80
[20] = dose: 200.0 mg/kg/injection, schedule: Q01DX009 (ip), vehicle: saline with Tween-80

Measured: T/C

COc1ccc2c(Cl)cc(NC(=S)Nc3ccccc3)nc2c1
inactive: dose: 6.25 mg/kg/injection, schedule: Q01DX009 (ip), vehicle: Klucel (hydroxypropylcellulose) (HPC) 103 % of control | [1] 104 % of control | [2] 96 % of control

CCOC(=O)c1sc(SC)c2c(N)nc(C)nc12
inactive: [3] 98 % of control | [4] 94 % of control | [5] 95 % of control

CC(=O)CC(=NC(C)(C)C)Nc1ncc(Cl)c2ccccc12
inactive: [3] 94 % of control | [4] 92 % of control | [5] 97 % of control

Cc1cccn2cnnc12
inactive: [6] 119 % of control | [7] 119 % of control | [8] 117 % of control

O=C(/C=C/c1ccccc1)C/C(=N/O)C(=O)NO
inactive: [9] 104 % of control | [10] 101 % of control | [11] 103 % of control

CC(C)C(N)P(=O)(O)O (stereo not drawn)
inactive: dose: 25.0 mg/kg/injection, schedule: Q01DX009 (ip), vehicle: suspension in saline 96 % of control | dose: 50.0 mg/kg/injection, schedule: Q01DX009 (ip), vehicle: suspension in saline 98 % of control | dose: 100.0 mg/kg/injection, schedule: Q01DX009 (ip), vehicle: suspension in saline 99 % of control | dose: 200.0 mg/kg/injection, schedule: Q01DX009 (ip), vehicle: suspension in saline 100 % of control

O=C1Nc2cnc(Cl)nc2Nc2cc(Cl)ccc21
inactive: [12] 95 % of control | [13] 95 % of control | [14] 92 % of control

COC1=CC[C@H]2[C@H]3Cc4ccc(OC)c5c4[C@@]2(CCN3CC2CC2)C1O5 (stereo partly drawn)
inactive: dose: 100.0 mg/kg/injection, schedule: Q04DX002 (ip), vehicle: Klucel (hydroxypropylcellulose) (HPC) 97 % of control | dose: 200.0 mg/kg/injection, schedule: Q04DX002 (ip), vehicle: Klucel (hydroxypropylcellulose) (HPC) 102 % of control

CC(=O)N(C)c1ccc(Nc2cc(S(=O)(=O)O)c(N)c3c2C(=O)c2ccccc2C3=O)cc1
inactive: [9] 98 % of control | [10] 100 % of control | [11] 90 % of control

O=C1OC(c2ccccc2)=N/C1=C/c1cccn(-c2ccccc2)c1=S
inactive: [12] 94 % of control | [13] 87 % of control | [14] 86 % of control

O=C1C=C(Nc2ccccc2C(=O)O)C(=O)C=C1Nc1ccccc1C(=O)O
inactive: [15] 107 % of control | dose: 100.0 mg/kg/injection, schedule: Q01DX009 (ip), vehicle: Klucel (hydroxypropylcellulose) (HPC) 110 % of control | dose: 200.0 mg/kg/injection, schedule: Q01DX009 (ip), vehicle: Klucel (hydroxypropylcellulose) (HPC) 113 % of control

CC(=O)Nc1ccc(S(=O)(=O)Nc2ccc([N+](=O)[O-])cc2)cc1
inactive: dose: 100.0 mg/kg/injection, schedule: Q04DX003 (ip), vehicle: saline with Tween-80 90 % of control | dose: 200.0 mg/kg/injection, schedule: Q04DX003 (ip), vehicle: saline with Tween-80 86 % of control | dose: 400.0 mg/kg/injection, schedule: Q04DX003 (ip), vehicle: saline with Tween-80 100 % of control

CC12CC[C]([Hg][I])(CC1)C2(C)C
inactive: [16] 105 % of control | [17] 112 % of control | dose: 25.0 mg/kg/injection, schedule: Q01DX009 (ip), vehicle: saline with Tween-80 107 % of control

CN(C)C(=[Se])[Se]C(=[Se])N(C)C
inactive: dose: 3.75 mg/kg/injection, schedule: Q01DX005 (ip), vehicle: Klucel (hydroxypropylcellulose) (HPC) 99 % of control | dose: 7.5 mg/kg/injection, schedule: Q01DX005 (ip), vehicle: Klucel (hydroxypropylcellulose) (HPC) 99 % of control | dose: 15.0 mg/kg/injection, schedule: Q01DX005 (ip), vehicle: Klucel (hydroxypropylcellulose) (HPC) 100 % of control

C=C(C)C1Oc2ccc(C(C)=O)cc2C1OC(=O)/C(C)=C\C (stereo not drawn)
inactive: dose: 22.5 mg/kg/injection, schedule: Q01DX009 (ip), vehicle: other 107 % of control | dose: 45.0 mg/kg/injection, schedule: Q01DX009 (ip), vehicle: other 111 % of control | dose: 90.0 mg/kg/injection, schedule: Q01DX009 (ip), vehicle: other 107 % of control | dose: 180.0 mg/kg/injection, schedule: Q01DX009 (ip), vehicle: other 107 % of control

ClCC#CCCl
inactive: [16] 102 % of control | [17] 99 % of control

CC(Cl)CN1COc2ccc3ccc4c(c3c2C1)CN(CC(C)Cl)CO4 (stereo not drawn)
inactive: [12] 106 % of control and 107 % of control and 117 % of control | [13] 107 % of control and 112 % of control and 123 % of control | [14] 117 % of control and 124 % of control | dose: 400.0 mg/kg/injection, schedule: Q01DX005 (ip), vehicle: Klucel (hydroxypropylcellulose) (HPC) 116 % of control

COc1ccc2nc(-n3[nH]c(C)c(-c4cc(C)nn4-c4ccccc4)c3=O)cc(C)c2c1
inactive: dose: 100.0 mg/kg/injection, schedule: Q01DX001 (ip), vehicle: saline with Tween-80 98 % of control | dose: 200.0 mg/kg/injection, schedule: Q01DX001 (ip), vehicle: saline with Tween-80 91 % of control

CCOC(CNc1c[nH]c(=O)[nH]c1=O)OCC
inactive: [18] 100 % of control | [19] 100 % of control | [20] 103 % of control | dose: 400.0 mg/kg/injection, schedule: Q01DX009 (ip), vehicle: saline with Tween-80 100 % of control

CC(=O)Nc1ccc(NC(=S)NC(=O)c2ccccc2)cc1
inactive: [18] 107 % of control | [19] 100 % of control | [20] 95 % of control

OCC12COCN1COC2
inactive: [6] 106 % of control and 92 % of control | [7] 106 % of control and 111 % of control | [8] 108 % of control and 118 % of control | dose: 400.0 mg/kg/injection, schedule: Q01DX009 (ip), vehicle: saline 123 % of control

CCOS(=O)c1ccc(C)cc1 (stereo not drawn)
inactive: [1] 98 % of control | [2] 98 % of control | [15] 105 % of control and 110 % of control
